From patent US20250353891A1 (MEDIMMUNE LIMITED, priority 2022, published 2025)
Read-outs that look alike come from different tables or passages of the source. Starred links: 1 amine or outer side, 2 acyl side, 3 side chain; linkers in the order of their positions; H or OH if unused. Non-standard residues stand in square brackets, D forms with d. Residues, ends and D or L forms follow the SMILES beside them. Groups on a side chain read outwards from the residue. *: point of attachment. C20 diacid = O=C(O)CCCCCCCCCCCCCCCCCCC(=O)*; C18 diacid = O=C(O)CCCCCCCCCCCCCCCCC(=O)*; γGlu = O=C(O)[C@H](CCC(=O)[*:2])N[*:1]; αMeF = C[C@](N)(Cc1ccccc1)C(=O)O; AEEA = NCCOCCOCC(=O)O; Aib = CC(C)(N)C(=O)O

Key:
[1] = biological target: human GLP-1 receptor (hGLP-1R) (Homo sapiens, UniProt P43220); assay: cAMP production (HTRF) in CHO cells expressing hGLP-1R; type: cell-based; parameters: expressed in transfected cells; conditions: for EC50: cAMP in CHO hGLP-1R cells, geometric mean, read-out: hGLP-1R EC50; for % Relative Potency Ratio: % GLP-1R activity relative to GLP-1 / % GlucR activity relative to glucagon
Summary of the method: (§1)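 Cells were resuspended in assay buffer at batch-optimized density, typically 1×10^5 cells/mL for hGLP-1R and 2×10^5 cells/mL for hGCGR. After 30 min incubation at room temperature with compound, cAMP was measured by two-step HTRF. EC50 values came from 4-parameter logistic fits of % Delta F.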

[2] = biological target: human glucagon receptor (hGCGR) (Homo sapiens, UniProt P47871); assay: cAMP production (HTRF) in CHO cells expressing hGCGR; type: cell-based; parameters: expressed in transfected cells; conditions: cAMP in CHO hGCGR cells, geometric mean, read-out: hGluc-R EC50
Summary of the method: as §1

[3] = Table 6, peptides modified at position 17
[4] = Table 7, peptides modified at position 20

Chain of human glucagon receptor (hGCGR) (P47871 26-477): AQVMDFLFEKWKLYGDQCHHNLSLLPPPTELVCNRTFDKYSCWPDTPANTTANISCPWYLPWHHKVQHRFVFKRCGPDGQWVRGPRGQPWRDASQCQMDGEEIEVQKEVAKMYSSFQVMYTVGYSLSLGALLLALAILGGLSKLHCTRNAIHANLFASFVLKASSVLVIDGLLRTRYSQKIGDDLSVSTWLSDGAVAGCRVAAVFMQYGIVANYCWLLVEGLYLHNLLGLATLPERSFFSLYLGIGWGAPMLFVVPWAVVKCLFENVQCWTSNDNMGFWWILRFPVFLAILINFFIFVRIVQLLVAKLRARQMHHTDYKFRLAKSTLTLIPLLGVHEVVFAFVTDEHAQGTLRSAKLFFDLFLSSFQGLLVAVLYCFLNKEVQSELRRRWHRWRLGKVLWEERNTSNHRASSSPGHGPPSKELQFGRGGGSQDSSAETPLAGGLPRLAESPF
Chain of human GLP-1 receptor (hGLP-1R) (P43220 24-463): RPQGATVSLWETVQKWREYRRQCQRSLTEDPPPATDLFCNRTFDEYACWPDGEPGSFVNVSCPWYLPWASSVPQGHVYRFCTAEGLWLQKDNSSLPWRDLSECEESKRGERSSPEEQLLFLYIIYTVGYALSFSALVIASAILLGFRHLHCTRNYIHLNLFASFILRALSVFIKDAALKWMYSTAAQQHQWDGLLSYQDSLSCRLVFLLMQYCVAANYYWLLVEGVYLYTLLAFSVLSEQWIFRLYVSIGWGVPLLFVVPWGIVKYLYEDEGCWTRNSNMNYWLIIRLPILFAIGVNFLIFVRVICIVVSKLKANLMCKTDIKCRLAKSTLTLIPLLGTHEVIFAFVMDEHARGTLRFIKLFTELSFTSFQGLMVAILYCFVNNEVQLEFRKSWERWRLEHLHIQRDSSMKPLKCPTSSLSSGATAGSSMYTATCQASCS

SMILES	EC50 [1, 3] [nM]	% Relative Potency Ratio ([1]; Table 6)	EC50 [2, 3] [nM]	EC50 [1, 4] [nM]	% Relative Potency Ratio ([1]; Table 7)	EC50 [2, 4] [nM]
CC(C)C[C@H](NC(=O)[C@H](CC(C)C)NC(=O)[C@H](Cc1c[nH]c2ccccc12)NC(=O)[C@H](CCCNC(=N)N)NC(=O)[C@@H](NC(=O)[C@H](Cc1ccccc1)NC(=O)[C@H](CC(=O)O)NC(=O)[C@H](CCC(N)=O)NC(=O)[C@H](C)NC(=O)[C@H](CCCNC(=N)N)NC(=O)[C@H](CCCCNC(=O)COCCOCCNC(=O)COCCOCCNC(=O)CC[C@H](NC(=O)CCCCCCCCCCCCCCCCCCC(=O)O)C(=O)O)NC(=O)[C@H](CO)NC(=O)[C@H](CCC(=O)O)NC(=O)[C@H](CC(C)C)NC(=O)[C@](C)(Cc1ccccc1)NC(=O)[C@H](CCCCN)NC(=O)[C@H](CO)NC(=O)[C@@H](NC(=O)[C@H](CC(=O)O)NC(=O)[C@H](CO)NC(=O)[C@@H](NC(=O)[C@H](Cc1ccccc1)NC(=O)[C@@H](NC(=O)CNC(=O)[C@H](CCC(N)=O)NC(=O)C(C)(C)NC(=O)[C@@H](N)Cc1c[nH]cn1)[C@@H](C)O)[C@@H](C)O)C(C)C)C(C)C)C(=O)N[C@@H](C)C(=O)NC(C)(C)C(=O)NCC(N)=O [Peptide 516] (H-H[Aib]QGTFTSDVSK[αMeF]LESK([AEEA-AEEA-γGlu-C20 diacid])RAQDFVRWLLA[Aib]G-NH2; N-terminus assumed)	0.137	11.3	0.785	–	–	–
CC[C@H](C)[C@H](NC(=O)[C@H](Cc1ccccc1)NC(=O)[C@H](CCC(=O)O)NC(=O)[C@H](CCCNC(=N)N)NC(=O)[C@H](C)NC(=O)[C@H](C)NC(=O)[C@H](CCCCNC(=O)COCCOCCNC(=O)COCCOCCNC(=O)CC[C@H](NC(=O)CC[C@H](NC(=O)CCCCCCCCCCCCCCCCC(=O)O)C(=O)O)C(=O)O)NC(=O)[C@H](C)NC(=O)[C@H](CCC(=O)O)NC(=O)[C@H](CC(C)C)NC(=O)[C@](C)(Cc1ccccc1)NC(=O)[C@H](CCCCN)NC(=O)[C@H](CO)NC(=O)[C@@H](NC(=O)[C@H](CC(=O)O)NC(=O)[C@H](CO)NC(=O)[C@@H](NC(=O)[C@H](Cc1ccccc1)NC(=O)[C@@H](NC(=O)CNC(=O)[C@H](CCC(N)=O)NC(=O)C(C)(C)NC(=O)[C@@H](N)Cc1c[nH]cn1)[C@@H](C)O)[C@@H](C)O)C(C)C)C(=O)N[C@@H](C)C(=O)N[C@@H](Cc1c[nH]c2ccccc12)C(=O)N[C@@H](CC(C)C)C(=O)N[C@@H](CC(C)C)C(=O)N[C@@H](CCC(=O)O)C(=O)N[C@H](C(N)=O)[C@@H](C)O [Peptide 517] (H-H[Aib]QGTFTSDVSK[αMeF]LEAK([AEEA-AEEA-γGlu-γGlu-C18 diacid])AAREFIAWLLET-NH2)	0.146	10.0	0.738	–	–	–
CC(C)C[C@H](NC(=O)[C@H](Cc1c[nH]c2ccccc12)NC(=O)[C@H](CCC(N)=O)NC(=O)[C@@H](NC(=O)[C@H](Cc1ccccc1)NC(=O)[C@H](CC(=O)O)NC(=O)[C@H](CCCNC(=N)N)NC(=O)[C@H](C)NC(=O)[C@H](CCCNC(=N)N)NC(=O)[C@H](CCCCNC(=O)COCCOCCNC(=O)COCCOCCNC(=O)CC[C@H](NC(=O)CC[C@H](NC(=O)CCCCCCCCCCCCCCCCC(=O)O)C(=O)O)C(=O)O)NC(=O)[C@@H](NC(=O)[C@H](CC(=O)O)NC(=O)[C@H](CC(C)C)NC(=O)[C@](C)(Cc1ccccc1)NC(=O)[C@H](CCCCN)NC(=O)[C@H](CO)NC(=O)[C@@H](NC(=O)[C@H](CC(=O)O)NC(=O)[C@H](CO)NC(=O)[C@@H](NC(=O)[C@H](Cc1ccccc1)NC(=O)[C@@H](NC(=O)CNC(=O)[C@H](CCC(N)=O)NC(=O)C(C)(C)NC(=O)[C@@H](N)Cc1c[nH]cn1)[C@@H](C)O)[C@@H](C)O)C(C)C)[C@@H](C)O)C(C)C)C(=O)N[C@@H](CC(C)C)C(=O)N[C@@H](CCC(=O)O)C(=O)NC(C)(C)C(=O)NCC(=O)O [Peptide 518]	0.031	4.9	0.0773	–	–	–
CC(C)C[C@H](NC(=O)[C@H](Cc1c[nH]c2ccccc12)NC(=O)[C@H](CCC(N)=O)NC(=O)[C@@H](NC(=O)[C@H](Cc1ccccc1)NC(=O)[C@H](CC(=O)O)NC(=O)[C@H](CCCNC(=N)N)NC(=O)[C@H](C)NC(=O)[C@H](CCCNC(=N)N)NC(=O)[C@H](CCCCNC(=O)CC[C@H](NC(=O)CC[C@H](NC(=O)COCCOCCNC(=O)COCCOCCNC(=O)CC[C@H](NC(=O)CC[C@H](NC(=O)CCCCCCCCCCCCCCCCC(=O)O)C(=O)O)C(=O)O)C(=O)O)C(=O)O)NC(=O)[C@@H](NC(=O)[C@H](CC(=O)O)NC(=O)[C@H](CC(C)C)NC(=O)[C@](C)(Cc1ccccc1)NC(=O)[C@H](CCCCN)NC(=O)[C@H](CO)NC(=O)[C@@H](NC(=O)[C@H](CC(=O)O)NC(=O)[C@H](CO)NC(=O)[C@@H](NC(=O)[C@H](Cc1ccccc1)NC(=O)[C@@H](NC(=O)CNC(=O)[C@H](CCC(N)=O)NC(=O)C(C)(C)NC(=O)[C@@H](N)Cc1c[nH]cn1)[C@@H](C)O)[C@@H](C)O)C(C)C)[C@@H](C)O)C(C)C)C(=O)N[C@@H](CC(C)C)C(=O)N[C@@H](CCC(=O)O)C(=O)NC(C)(C)C(=O)NCC(=O)O [Peptide 519]	0.172	4.4	0.386	–	–	–
CC(C)C[C@H](NC(=O)[C@H](Cc1c[nH]c2ccccc12)NC(=O)[C@H](CCC(N)=O)NC(=O)[C@@H](NC(=O)[C@H](Cc1ccccc1)NC(=O)[C@H](CC(=O)O)NC(=O)[C@H](CCCNC(=N)N)NC(=O)[C@H](C)NC(=O)[C@H](CCCNC(=N)N)NC(=O)[C@H](CCCCNC(=O)CC[C@H](NC(=O)CC[C@H](NC(=O)COCCOCCNC(=O)COCCOCCNC(=O)CC[C@H](NC(=O)CC[C@H](NC(=O)CCCCCCCCCCCCCCCCCCC(=O)O)C(=O)O)C(=O)O)C(=O)O)C(=O)O)NC(=O)[C@@H](NC(=O)[C@H](CC(=O)O)NC(=O)[C@H](CC(C)C)NC(=O)[C@](C)(Cc1ccccc1)NC(=O)[C@H](CCCCN)NC(=O)[C@H](CO)NC(=O)[C@@H](NC(=O)[C@H](CC(=O)O)NC(=O)[C@H](CO)NC(=O)[C@@H](NC(=O)[C@H](Cc1ccccc1)NC(=O)[C@@H](NC(=O)CNC(=O)[C@H](CCC(N)=O)NC(=O)C(C)(C)NC(=O)[C@@H](N)Cc1c[nH]cn1)[C@@H](C)O)[C@@H](C)O)C(C)C)[C@@H](C)O)C(C)C)C(=O)N[C@@H](CC(C)C)C(=O)N[C@@H](CCC(=O)O)C(=O)NC(C)(C)C(=O)NCC(=O)O [Peptide 520]	0.543	5.9	1.62	–	–	–
CC(C)C[C@H](NC(=O)[C@H](Cc1c[nH]c2ccccc12)NC(=O)[C@H](CCC(N)=O)NC(=O)[C@@H](NC(=O)[C@H](Cc1ccccc1)NC(=O)[C@H](CC(=O)O)NC(=O)[C@H](CCCCNC(=O)COCCOCCNC(=O)COCCOCCNC(=O)CC[C@H](NC(=O)CCCCCCCCCCCCCCCCC(=O)O)C(=O)O)NC(=O)[C@H](C)NC(=O)[C@H](CCCNC(=N)N)NC(=O)[C@H](CCC(=O)O)NC(=O)[C@H](CO)NC(=O)[C@H](CC(=O)O)NC(=O)[C@H](CC(C)C)NC(=O)[C@](C)(Cc1ccccc1)NC(=O)[C@H](CCCCN)NC(=O)[C@H](CO)NC(=O)[C@@H](NC(=O)[C@H](CC(=O)O)NC(=O)[C@H](CO)NC(=O)[C@@H](NC(=O)[C@H](Cc1ccccc1)NC(=O)[C@@H](NC(=O)CNC(=O)[C@H](CCC(N)=O)NC(=O)C(C)(C)NC(=O)[C@@H](N)Cc1c[nH]cn1)[C@@H](C)O)[C@@H](C)O)C(C)C)C(C)C)C(=O)N[C@@H](CCC(=O)O)C(=O)N[C@@H](C)C(=O)NCC(=O)NCC(=O)O [Peptide 521]	–	–	–	0.677	29.5	10.1
CC(C)C[C@H](NC(=O)[C@H](Cc1c[nH]c2ccccc12)NC(=O)[C@H](C)NC(=O)[C@@H](NC(=O)[C@H](Cc1ccccc1)NC(=O)[C@H](CC(=O)O)NC(=O)[C@H](CCCCNC(=O)COCCOCCNC(=O)COCCOCCNC(=O)CC[C@H](NC(=O)CCCCCCCCCCCCCCCCC(=O)O)C(=O)O)NC(=O)[C@H](C)NC(=O)[C@H](CCCNC(=N)N)NC(=O)[C@H](CCC(=O)O)NC(=O)[C@H](CO)NC(=O)[C@H](CC(=O)O)NC(=O)[C@H](CC(C)C)NC(=O)[C@](C)(Cc1ccccc1)NC(=O)[C@H](CCCCN)NC(=O)[C@H](CO)NC(=O)[C@@H](NC(=O)[C@H](CC(=O)O)NC(=O)[C@H](CO)NC(=O)[C@@H](NC(=O)[C@H](Cc1ccccc1)NC(=O)[C@@H](NC(=O)CNC(=O)[C@H](CCC(N)=O)NC(=O)C(C)(C)NC(=O)[C@@H](N)Cc1c[nH]cn1)[C@@H](C)O)[C@@H](C)O)C(C)C)C(C)C)C(=O)N[C@@H](CCC(=O)O)C(=O)N[C@@H](C)C(=O)NCC(=O)NCC(=O)O [Peptide 522]	–	–	–	0.508	24.8	6.36
CC(C)C[C@H](NC(=O)[C@H](Cc1c[nH]c2ccccc12)NC(=O)[C@H](C)NC(=O)[C@@H](NC(=O)[C@H](Cc1ccccc1)NC(=O)[C@H](CC(=O)O)NC(=O)[C@H](CCCCNC(=O)COCCOCCNC(=O)COCCOCCNC(=O)CC[C@H](NC(=O)CCCCCCCCCCCCCCCCCCC(=O)O)C(=O)O)NC(=O)[C@H](C)NC(=O)[C@H](CCCNC(=N)N)NC(=O)[C@H](CCC(=O)O)NC(=O)[C@H](CO)NC(=O)[C@H](CC(=O)O)NC(=O)[C@H](CC(C)C)NC(=O)[C@](C)(Cc1ccccc1)NC(=O)[C@H](CCCCN)NC(=O)[C@H](CO)NC(=O)[C@@H](NC(=O)[C@H](CC(=O)O)NC(=O)[C@H](CO)NC(=O)[C@@H](NC(=O)[C@H](Cc1ccccc1)NC(=O)[C@@H](NC(=O)CNC(=O)[C@H](CCC(N)=O)NC(=O)C(C)(C)NC(=O)[C@@H](N)Cc1c[nH]cn1)[C@@H](C)O)[C@@H](C)O)C(C)C)C(C)C)C(=O)N[C@@H](CCC(=O)O)C(=O)N[C@@H](C)C(=O)NCC(=O)NCC(=O)O [Peptide 523]	–	–	–	0.615	–	> 24.7
